In patent US11472766B2, “Lipid nanoparticle composition” (Suzhou Abogen Biosciences Co., Ltd., priority 2020, dated 2022):

Columns and labels:
[1] = Lipid nanoparticle size by dynamic light scattering (Malvern Zetasizer Nano ZS); type: physicochemical; conditions: LNP: cationic lipid/DSPC/cholesterol/PEG-lipid 50:10:38.5:1.5, hEPO mRNA; Table 3
How it was run: (§1)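 Lipids 50:10:38.5:1.5 (cationic:DSPC:chol:PEG) in EtOH + mRNA in citrate pH 4, 1:3 vol, microfluidic, 9–30 mL/min; total lipid:mRNA ~10:1–30:1 w/w. Dialysis to DPBS, 0.2 μm filter. DLS 173° backscatter; Ribogreen encapsulation.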

[2] = Encapsulation efficiency of lipid nanoparticles (Quant-it Ribogreen RNA quantification assay); type: physicochemical; conditions: LNP encapsulating hEPO mRNA; Table 3
How it was run: as §1

[3] = tested on: human erythropoietin (hEPO) mRNA; test: Animal study: hEPO expression after tail vein injection of LNPs encapsulating hEPO mRNA (serum ELISA); type: in vivo; conditions: hEPO level, female ICR mice, 0.5 mg/kg, 6 hours post administration, class symbols, Table 3
How it was run: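 Female ICR mice (6-8 weeks) received LNPs carrying hEPO mRNA by tail vein injection at 0.5 mg/kg, with MC3 LNPs dosed the same way as positive control. Blood was drawn at set times (e.g., 6 h) and serum separated. hEPO was quantified by ELISA and reported as μg/ml.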

[4] = Apparent pKa of LNP formulations (TNS fluorescence assay); conditions: LNP cationic lipid/DSPC/cholesterol/DMG-PEG 50/10/38.5/1.5 mol %, Table 3

Structure (SMILES) | polydispersity [1] | size nm [1] [nm] | Encapsulation Efficiency [2] [%] | Apparant Pka [4] | Expression at 6 h (μg/ml) [3]
CCCCCCCCC(CCCCCCCC)COC(=O)CCCCCN(CCCCCC(=O)OCC(CCCCCCCC)CCCCCCCC)CCN(CCO)C1CCC1 [Compound 50] | 0.085 | 67.68 | 94.90 | 6.143 | A (≥2)
CCCCCCCCCC(CCCCCCCCC)COC(=O)CCCCCN(CCCCCC(=O)OCC(CCCCCCCCC)CCCCCCCCC)CCN(CCO)C1CCC1 [Compound 51] | 0.073 | 59.73 | 94.10 | 6.093 | A (≥2)
CCCCCCCCC(CCCCCC)COC(=O)CCCCCN(CCCCCC(=O)OCC(CCCCCC)CCCCCCCC)CCN(CCC)C1CCC(O)CC1 (stereo not shown) [Compound 56] | 0.07 | 85.46 | 96.4 | 6.466 | A (≥2)
CCCCCCCCC(CCCCCC)COC(=O)CCCCCN(CCCCCC(=O)OCC(CCCCCC)CCCCCCCC)CCN(C(C)C)C1CCC(O)CC1 (stereo not shown) [Compound 57] | 0.063 | 93.52 | 96.1 | 6.645 | A (≥2)
CCCCCCCCC(CCCCCC)COC(=O)CCCCCN(CCCCCC(=O)OCC(CCCCCC)CCCCCCCC)CCN(CCCC)C1CCC(O)CC1 (stereo not shown) [Compound 58] | 0.067 | 74.68 | 90.7 | 6.364 | A (≥2)
CCCCCCCCC(CCCCCC)COC(=O)CCCCCN(CCCCCC(=O)OCC(CCCCCC)CCCCCCCC)CCN(C)C1CC(O)C1 (stereo not shown) [Compound 59] | 0.008 | 93.24 | 97.7 | 6.682 | B (≥1 and <2)
CCCCCCCCC(CCCCCC)COC(=O)CCCCCN(CCCCCC(=O)OCC(CCCCCC)CCCCCCCC)CCN(CCC)C1CC(O)C1 (stereo not shown) [Compound 60] | 0.086 | 68.6 | 92.1 | 6.329 | B (≥1 and <2)
CCCCC/C=C\CCCOC(=O)CCCCCN(CCCCCC(=O)OCCC/C=C\CCCCC)CCN(CCO)C1CCC1 [Compound 62] | 0.156 | 244.8 | 36.2 | 6.438 | D (<0.1)
CCCCC/C=C\CCCC(CCC/C=C\CCCCC)OC(=O)CCCCCN(CCCCCC(=O)OCCC/C=C/CCCCC)CCN(CCO)C1CCC1 [Compound 63] | 0.088 | 94.11 | 85.9 | 6.406 | B (≥1 and <2)
CCCCCCCCC(CCCCCCCC)COC(=O)CCCCCN(CCCCCC(=O)OCC(CCCCCCCC)CCCCCCCC)CCN(CCO)C1CCCOC1 (stereo not shown) [Compound 65] | 0.066 | 63.83 | 93.0 | 6.544 | A (≥2)
CCCCC/C=C\CCCC(CCC/C=C\CCCCC)COC(=O)CCCCCN(CCCCCC(=O)OCC(CCC/C=C\CCCCC)CCC/C=C\CCCCC)CCN(CCO)C1CCC1 [Compound 66] | 0.064 | 63.86 | 80.0 | 6.036 | B (≥1 and <2)
CCCCCCCCC(CCCCCCCC)COC(=O)CCCCCN(CCCCCC(=O)OCC(CCCCCCCC)CCCCCCCC)CCN(CCCC)C1CCC(O)CC1 (stereo not shown) [Compound 67] | 0.05 | 64.75 | 79.3 | 6.341 | B (≥1 and <2)
CCCCCCCCC(CCCCCCCC)COC(=O)CCCCCN(CCCCCC(=O)OCC(CCCCCCCC)CCCCCCCC)CCN(CCC)C1CCCC1O (stereo not shown) [Compound 68] | 0.052 | 56.96 | 80.1 | 6.279 | C (≥0.1 and <1)
CCCCCCCCC(CCCCCCCC)COC(=O)CCCCCN(CCCCCC(=O)OCC(CCCCCCCC)CCCCCCCC)CCN(CCC)C1CCC(O)CC1 (stereo not shown) [Compound 70] | 0.034 | 77.54 | 84.3 | 6.381 | A (≥2)

Second part, led by results:

polydispersity [1] | size nm [1] [nm] | Encapsulation Efficiency [2] [%] | Apparant Pka [4] | Structure (SMILES) | Expression at 6 h (μg/ml) [3]
0.038 | 91.13 | 93.0 | 6.613 | CCCCCCCC(CCCCCCC)COC(=O)CCCCCN(CCCCCC(=O)OCC(CCCCCCC)CCCCCCC)CCN(CCC)C1CCC(O)CC1 (stereo not shown) [Compound 71] | A (≥2)
0.109 | 113.9 | 93.5 | 6.712 | CCCCCCC(CCCCCC)COC(=O)CCCCCN(CCCCCC(=O)OCC(CCCCCC)CCCCCC)CCN(CCC)C1CCC(O)CC1 (stereo not shown) [Compound 72] | A (≥2)
0.076 | 54.58 | 93.2 | 6.2 | CCCCCCCCC(CCCCCCCC)COC(=O)CCCCCN(CCCCCC(=O)OCC(CCCCCCCC)CCCCCCCC)CCN(CCCCC)C1CCC(O)CC1 (stereo not shown) [Compound 74] | B (≥1 and <2)
0.038 | 69.81 | 90.06 | 6.352 | CCCCCCC(CCCCCC)COC(=O)CCCCCN(CCCCCC(=O)OCC(CCCCCC)CCCCCC)CCN(CCO)C1CCC1 [Compound 77] | A (≥2)
0.154 | 52.19 | 89.2 | 5.735 | CCCCCCCCC(CCCCCCCC)COC(=O)CCCCCN(CCCCCC(=O)OCC(CCCCCCCC)CCCCCCCC)CCN(CCO)C1CC(F)(F)C1 [Compound 79] | C (≥0.1 and <1)
0.06 | 76.71 | 85.2 | 6.201 | CCCCCCCCCCCOC(=O)CCCCCN(CCCCCC(=O)OCC(CCCCCCCC)CCCCCCCC)CCN(CCO)C1CC1 [Compound 80] | B (≥1 and <2)
0.028 | 75.89 | 94.6 | 6.476 | CCCCCCCCCCCOC(=O)CCCCCN(CCCCCC(=O)OCC(CCCCCCCC)CCCCCCCC)CCN(CCO)C1CCC1 [Compound 81] | A (≥2)
0.025 | 87.68 | 94.7 | 6.406 | CCCCCCCCCCCOC(=O)CCCCCN(CCCCCC(=O)OCC(CCCCCCCC)CCCCCCCC)CCN(CCO)C1CCCC1 [Compound 82] | A (≥2)
0.087 | 67.62 | 93.5 | 6.328 | CCCCCCCCCCCOC(=O)CCCCCN(CCCCCC(=O)OCC(CCCCCCCC)CCCCCCCC)CCN(CCO)C1CCCCC1 [Compound 83] | B (≥1 and <2)
